Laboratory results reported in BindingDB's records for doi:10.1016/j.bmc.2008.11.020 (Astellas Pharma, 2008).

Columns and labels:
[1] = Antagonist activity at mouse CCR4 receptor expressed in mouse B300-19 cells assessed as CCL22-induced chemotaxis
[2] = Antagonist activity at human CCR4 receptor expressed in mouse B300-19 cells assessed as CCL22-induced chemotaxis

Compound	IC50 [1] [nM]	IC50 [2] [nM]
COc1cc2nc(N3CCC(N4CCCC(CO)C4)CC3)nc(NCc3ccc(Cl)cc3)c2cc1OC (stereo unspecified) [(1'-{4-[(4-Chlorobenzyl)amino]-6,7-dimethoxyquinazolin-2-yl}-1,4'-bipiperidin-3-yl)methanol]	140	450
COc1cc2nc(N3CCC(N4CCCCC4)CC3)nc(NC3CCCCCC3)c2cc1OC [N-cycloheptyl-6,7-dimethoxy-2-(4-(piperidin-1-yl)piperidin-1-yl)quinazolin-4-amine]	39	140
COc1cc2nc(N3CCC(N4CCCC(CO)C4)CC3)nc(NCCc3ccc(Cl)cc3)c2cc1OC (stereo unspecified) [1'-(4-{[2-(4-Chlorophenyl)ethyl]amino}-6,7-dimethoxyquinazolin-2-yl)-1,40-bipiperidin-3-yl]methanol]	390	–
COc1cc2nc(N3CCC(N4CCCC(CO)C4)CC3)nc(Nc3ccc(Cl)cc3)c2cc1OC (stereo unspecified) [(1'-{4-[(4-Chlorophenyl)amino]-6,7-dimethoxyquinazolin-2-yl}-1,4'-bipiperidin-3-yl)methanol]	58	23
COCC1CCCN(C2CCN(c3nc(Nc4ccc(Cl)cc4)c4cc(OC)c(OC)cc4n3)CC2)C1 (stereo unspecified) [N-(4-Chlorophenyl)-6,7-dimethoxy-2-[3-(methoxymethyl)-1,4'-bipiperidin-1'-yl]quinazolin-4-amine]	230	64
COc1cc2nc(N3CCC(N4CCCC(O)C4)CC3)nc(Nc3ccc(Cl)cc3)c2cc1OC (stereo unspecified) [1'-{4-[(4-Chlorophenyl)amino]-6,7-dimethoxyquinazolin-2-yl}-1,4'-bipiperidin-3-ol]	430	85
COc1cc2nc(N3CCC(N4CCCC(OC)C4)CC3)nc(Nc3ccc(Cl)cc3)c2cc1OC (stereo unspecified) [N-(4-chlorophenyl)-6,7-dimethoxy-2-(3-methoxy-1,4'-bipiperidin-1'-yl)quinazolin-4-amine]	420	510
COc1cc2nc(N3CCC(N4CCCC(CO)C4)CC3)nc(NC3CCCCCC3)c2cc1OC (stereo unspecified) [{1'-[4-(Cycloheptylamino)-6,7-dimethoxyquinazolin-2-yl]-1,4'-bipiperidin-3-yl}methanol]	19	100
COc1cc2nc(N3CCC(N4CCOC(CO)C4)CC3)nc(Nc3ccc(Cl)cc3)c2cc1OC (stereo unspecified) [[4-(1-{4-[(4-Chlorophenyl)amino]-6,7-dimethoxyquinazolin-2-yl}piperidin-4-yl)morpholin-2-yl]methanol]	–	620
